# Patent US20060134602A1, “Methods of identifying cytotoxic effects in quiescent cells” (priority 2004, published 2006)
# Like-named read-outs stand apart in the source and are kept apart here. *1 amine or outer side, *2 acyl side, *3 side chain or, on linkers, in order; H or OH if unused. Where a SMILES comes first, the peptide text is derived from it. Bridges are numbered along the chain shown (N, C = ends). Roman numbers before positions name the chains, in order. [ ]: non-standard residue; d: D form. Actinocin(9to1) = Cc1c2oc3c(C)ccc(C(=O)[*:1])c3nc-2c(C(=O)[*:2])c(N)c1=O; NMeV = CN[C@H](C(=O)O)C(C)C; Sar = CNCC(=O)O
# Experiments:
# [1] = tested on: quiescent IMR-90 human lung fibroblasts; experiment: cells
# Procedure: Quantitation of Cytotoxicity: A luciferase assay kit was used to quantitate the amount of ATP produced by cells in each well to measure cytotoxicity of the compounds. The assay utilizes the enzyme luciferase which catalyses a reaction of ATP and luciferin to form light. The light produced is measured to determine the amount of ATP produced by the cells in each well. The higher the cell mortality in each well, the less ATP, and consequently, the less light will be produced. […] Wells in rows one and two, which contained no compound, were controls.
# Preparation of Quiescent Cells: A 96 well plate was plated at 0.8×10^4 cells/well in 200 μL of growth medium (MEM with Earle's salt) with IMR-90 human lung fibroblasts. The cells were incubated at 37° C. for four days.
# The media was removed from the wells, and each well was washed twice with 200 μL of MEM with Earle's salt and no serum. 90 μL/well of MEM with Earle's salt media containing sodium pyruvate, non-essential amino acids, L-glutamine and 0.1% fetal bovine serum was added to each well, and the cells were incubated for one day at 37° C.
# 10 μL of carbonyl cyanide (a positive control for cytotoxicity) stock solutions were added to rows one and two to obtain concentrations of 0 μM, 0.003 μM, 0.01 μM, 0.03 μM, 0.1 μM, 0.3 μM, 1.0 μM, 3.0 μM, 10.0 μM, 30.0 μM, and 100.0 μM in wells 2 through 12. 10 μL of stock solution of test compounds were added to duplicate row to obtain concentrations of 0 μM, 0.003 μM, 0.01 μM, 0.03 μM, 0.1 μM, 0.3 μM, 1.0 μM, 3.0 μM, 10.0 μM, 30.0 μM, and 100.0 μM in wells 2 through 12. The first well in each row contained no cells. […] The cells were incubated with the test compounds for 24 hours, 48 hours, or 72 hours.
# [2] = tested on: proliferating cancer cells; conditions: cited from earlier work
# [3] = read-out: IC50, 24 hours, quiescent IMR-90 human lung fibroblasts, 24 hours incubation
# [4] = read-out: IC50, 48 hours, quiescent IMR-90 human lung fibroblasts, 48 hours incubation
# [5] = read-out: IC50, 72 hours, quiescent IMR-90 human lung fibroblasts, 72 hours incubation
# [6] = Homo sapiens, IMR-90, 24 h, read-out: IC50, 24 hours, quiescent IMR-90 human lung fibroblasts, 24 hours incubation
# [7] = Homo sapiens, IMR-90, 48 h, read-out: IC50, 48 hours, quiescent IMR-90 human lung fibroblasts, 48 hours incubation
# [8] = Homo sapiens, IMR-90, 72 h, read-out: IC50, 72 hours, quiescent IMR-90 human lung fibroblasts, 72 hours incubation
smiles,measurement,setting,value
"O=c1[nH]cc(F)c(=O)[nH]1 [5-FU, 5-fluorouricil]",IC50,[1]; [3],> 10 µM
same,IC50,[1]; [4],> 10 µM
same,IC50,[1]; [5],> 10 µM
"Cc1c2oc3c(C)ccc(C(=O)N[C@@H]4C(=O)N[C@H](C(C)C)C(=O)N5CCC[C@H]5C(=O)N(C)CC(=O)N(C)[C@@H](C(C)C)C(=O)O[C@@H]4C)c3nc-2c(C(=O)N[C@@H]2C(=O)N[C@H](C(C)C)C(=O)N3CCC[C@H]3C(=O)N(C)CC(=O)N(C)[C@@H](C(C)C)C(=O)O[C@@H]2C)c(N)c1=O [Atinomycin D, actinomycin D] (I: T[dV]P[Sar][NMeV] / II: T[dV]P[Sar][NMeV]; ester I:1-I:C, II:1-II:C; linker I:N-II:N via Actinocin(9to1))",time dependence of cytotoxicity against quiescent fibroblasts,[1],time-dependent increases in cytotoxicity
same,IC50,[1]; [3],> 10 µM
same,IC50,[1]; [4],> 10 µM
same,IC50,[1]; [5],3.1 µM
"COc1cccc2c1C(=O)c1c(O)c3c(c(O)c1C2=O)C[C@@](O)(C(=O)CO)C[C@@H]3O[C@H]1C[C@H](N)[C@H](O)[C@H](C)O1 [Doxorubicin, doxorubicin]",time dependence of cytotoxicity against quiescent fibroblasts,[1],time-dependent increases in cytotoxicity
same,IC50,[1]; [6],> 10 µM
same,IC50,[1]; [7],5.3 µM
same,IC50,[1]; [8],2.5 µM
"COc1cc([C@@H]2c3cc4c(cc3[C@@H](O[C@@H]3O[C@@H]5CO[C@@H](C)O[C@H]5[C@H](O)[C@H]3O)[C@H]3COC(=O)[C@H]23)OCO4)cc(OC)c1O [Etoposide, etoposide]",IC50,[1]; [6],> 10 µM
same,IC50,[1]; [7],> 10 µM
same,IC50,[1]; [8],> 10 µM
"Nc1ccn([C@@H]2O[C@H](CO)[C@@H](O)C2(F)F)c(=O)n1 [Gemcitabine, gemcitabine]",IC50,[1]; [6],> 10 µM
same,IC50,[1]; [7],> 10 µM
same,IC50,[1]; [8],> 10 µM
"CO[C@@]12[C@H](COC(N)=O)C3=C(C(=O)C(C)=C(N)C3=O)N1C[C@@H]1N[C@@H]12 [Mitomycin C, mitomycin C]",IC50,[1]; [3],> 10 µM
same,IC50,[1]; [4],> 10 µM
same,IC50,[1]; [5],5 µM
"O=C1[O][Pt]2([NH][C@@H]3CCCC[C@H]3[NH]2)[O]C1=O [Oxaliplatin, oxaliplatin]",IC50,[1]; [3],> 10 µM
same,IC50,[1]; [4],> 10 µM
same,IC50,[1]; [5],> 10 µM
"CC(=O)O[C@H]1C(=O)[C@@]2(C)[C@H]([C@H](OC(=O)c3ccccc3)[C@]3(O)C[C@H](OC(=O)[C@H](O)[C@@H](NC(=O)c4ccccc4)c4ccccc4)C(C)=C1C3(C)C)[C@]1(OC(C)=O)CO[C@@H]1C[C@@H]2O [Paclitaxel, paclitaxel]",concentration inhibiting cancer cell growth,[2],low nanomolar concentration
same,IC50,[1]; [6],> 10 µM
same,IC50,[1]; [7],> 10 µM
same,IC50,[1]; [8],8.5 µM
same,concentration at which cytotoxic to quiescent fibroblasts,"[1]; human, 72 h",approximately 10 μM
same,IC50,[1]; [5],10 µM
CCc1c2c(nc3ccc(O)cc13)-c1cc3c(c(=O)n1C2)COC(=O)[C@]3(O)CC [SN-38],IC50,[1]; [3],7.1 µM
same,IC50,[1]; [4],8 µM
same,IC50,[1]; [5],8.5 µM
"CC[C@]1(O)C[C@@H]2CN(CCc3c([nH]c4ccccc34)[C@@](C(=O)OC)(c3cc4c(cc3OC)N(C)[C@H]3[C@@](O)(C(=O)OC)[C@H](OC(C)=O)[C@]5(CC)C=CCN6CC[C@]43[C@@H]65)C2)C1 [Vinblastine, vinblastine]",IC50,[1]; [6],> 10 µM
same,IC50,[1]; [7],> 10 µM
same,IC50,[1]; [8],> 10 µM
"CC[C@]1(O)C[C@H]2CN(CCc3c([nH]c4ccccc34)[C@@](C(=O)OC)(c3cc4c(cc3OC)N(C=O)[C@H]3[C@@](O)(C(=O)OC)[C@H](OC(C)=O)[C@]5(CC)C=CCN6CC[C@]43[C@@H]65)C2)C1 [Vincristine, vincristine]",IC50,[1]; [6],> 10 µM
same,IC50,[1]; [7],> 10 µM
same,IC50,[1]; [8],> 10 µM
C[C@@H]1C[C@@H]([C@H](O)CC2CC(=O)NC(=O)C2)C(=O)[C@@H](C)C1 [cycloheximide],IC50,"[1]; Homo sapiens, IMR-90, 24 h, read-out: IC50, 24 hours",> 10 µM
same,IC50,"[1]; Homo sapiens, IMR-90, 48 h, read-out: IC50, 48 hours",> 10 µM
same,IC50,"[1]; Homo sapiens, IMR-90, 72 h, read-out: IC50, 72 hours",> 10 µM
